pEC50, pIC50: −log10 of the molar value.
Tests used:
[1] = biological target: T1, DNA topoisomerase 1 (Homo sapiens) (UniProt P11387); assay: Stability constant for DNA topoisomerase I complex in competitive DNA assay
T1 sequence (whole entry): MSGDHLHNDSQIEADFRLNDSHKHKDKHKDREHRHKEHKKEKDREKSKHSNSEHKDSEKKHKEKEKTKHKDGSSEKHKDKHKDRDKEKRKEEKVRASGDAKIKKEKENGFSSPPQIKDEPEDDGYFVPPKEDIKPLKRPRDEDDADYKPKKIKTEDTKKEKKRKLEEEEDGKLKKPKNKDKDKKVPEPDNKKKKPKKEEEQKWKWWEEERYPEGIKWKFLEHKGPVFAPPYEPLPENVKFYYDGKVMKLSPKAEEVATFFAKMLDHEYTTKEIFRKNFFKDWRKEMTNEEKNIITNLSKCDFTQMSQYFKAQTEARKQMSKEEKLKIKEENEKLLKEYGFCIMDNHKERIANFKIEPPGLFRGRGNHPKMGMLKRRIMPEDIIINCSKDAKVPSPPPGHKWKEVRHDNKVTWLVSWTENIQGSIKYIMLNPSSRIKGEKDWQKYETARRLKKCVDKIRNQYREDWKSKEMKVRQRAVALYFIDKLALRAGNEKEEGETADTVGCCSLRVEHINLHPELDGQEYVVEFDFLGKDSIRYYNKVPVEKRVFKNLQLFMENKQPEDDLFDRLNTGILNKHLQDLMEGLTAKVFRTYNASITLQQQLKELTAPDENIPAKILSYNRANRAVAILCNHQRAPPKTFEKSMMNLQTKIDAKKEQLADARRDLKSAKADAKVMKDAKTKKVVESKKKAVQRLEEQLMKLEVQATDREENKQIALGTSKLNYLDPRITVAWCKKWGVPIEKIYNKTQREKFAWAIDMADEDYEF

HeLa = assay: Concentration required to inhibit growth of human cervical HeLa carcinoma cell line; type: functional, cell-based
PC-3 = assay: Concentration required to inhibit growth of human prostate PC-3 carcinoma cell line; type: functional, cell-based
DNA topoisomerase 1 = biological target: T2, DNA topoisomerase 1 (Homo sapiens, UniProt P11387); assay: Effective concentration against DNA topoisomerase I
T2 sequence (P11387 whole entry): T1 sequence (whole entry)

Question: Which K app [1] does the source give for `CC[C@@]1(O)C(=O)OCc2c1cc1n(c2=O)Cc2c-1nc1cc3c(cc1c2C1CCCCC1)OCO3` here?
Answer: 0.03 min⁻¹

Question: What about the pIC50 (HeLa; Homo sapiens, HeLa) of the same compound?
Answer: 8.05

Question: And the pIC50 (PC-3; Homo sapiens, PC-3)?
Answer: 7.94

Question: And the pEC50 (DNA topoisomerase 1)?
Answer: 6.00

Question: What does the source list for `CCc1c2c(nc3cc4c(cc13)OCO4)-c1cc3c(c(=O)n1C2)COC(=O)[C@]3(O)CC`?
Answer: K app [1]: 0.03 min⁻¹; pIC50 (HeLa; Homo sapiens, HeLa): 7.86; pIC50 (PC-3; Homo sapiens, PC-3): 8.00; pEC50 (DNA topoisomerase 1): 6.57

Question: `CCCCc1c2c(nc3ccccc13)-c1cc3c(c(=O)n1C2)COC(=O)[C@]3(O)CC` was tested. Which K app [1] did it give?
Answer: 0.05 min⁻¹

Question: And the pIC50 (HeLa; Homo sapiens, HeLa)?
Answer: 7.43

Question: What about the pIC50 (PC-3; Homo sapiens, PC-3) of the same compound?
Answer: 7.31

Question: What about the pEC50 (DNA topoisomerase 1) of the same compound?
Answer: 6.70

Question: What does the source list for `CCc1c2c(nc3ccc(O)cc13)-c1cc3c(c(=O)n1C2)COC(=O)[C@]3(O)CC` (stereo in doubt; form 2) [7-ETHYL-10-HYDROXYCAMPTOTHECIN]?
Answer: pIC50 (HeLa; hela): 7.41; pIC50 (PC-3; pc-3): 7.45; pEC50 (DNA topoisomerase 1): 7.15

Question: Which K app [1] does the source give for `CC[C@@]1(O)C(=O)OCc2c1cc1n(c2=O)Cc2c-1nc1ccccc1c2C(C)(C)C` here?
Answer: 0.26 min⁻¹

Question: And the pIC50 (HeLa; Homo sapiens, HeLa)?
Answer: 6.69

Question: What about the pIC50 (PC-3; Homo sapiens, PC-3) of the same compound?
Answer: 6.51

Question: What about the pEC50 (DNA topoisomerase 1) of the same compound?
Answer: 6.62

Question: What does the source list for `CC[C@@]1(O)C(=O)OCc2c1cc1n(c2=O)Cc2cc3cc4c(cc3nc2-1)OCO4`?
Answer: K app [1]: 0.05 min⁻¹; pIC50 (HeLa; Homo sapiens, HeLa): 8.02; pIC50 (PC-3; Homo sapiens, PC-3): 8.09

Question: What does the source list for `CC[C@@]1(O)C(=O)OCc2c1cc1n(c2=O)Cc2c-1nc1cc3c(cc1c2C1CCCC1)OCO3`?
Answer: K app [1]: 0.02 min⁻¹; pIC50 (HeLa; Homo sapiens, HeLa): 8.21; pIC50 (PC-3; Homo sapiens, PC-3): 8.05; pEC50 (DNA topoisomerase 1): 6.72

Question: `CC[C@@]1(O)C(=O)OCc2c1cc1n(c2=O)Cc2c-1nc1cc3c(cc1c2-c1ccc(F)cc1)OCO3` was tested. Which K app [1] did it give?
Answer: 0.004 min⁻¹

Question: And the pIC50 (HeLa; Homo sapiens, HeLa)?
Answer: 7.79

Question: And the pIC50 (PC-3; Homo sapiens, PC-3)?
Answer: 8.20

Question: And the pEC50 (DNA topoisomerase 1)?
Answer: 5.86

Question: What does the source list for `CC[C@@]1(O)C(=O)OCc2c1cc1n(c2=O)Cc2c-1nc1cc3c(cc1c2Cc1ccccc1)OCO3`?
Answer: K app [1]: 0.05 min⁻¹; pIC50 (HeLa; Homo sapiens, HeLa): 7.69; pIC50 (PC-3; Homo sapiens, PC-3): 7.72; pEC50 (DNA topoisomerase 1): 5.71

Question: Which results are given for `CC[C@@]1(O)C(=O)OCc2c1cc1n(c2=O)Cc2c-1nc1cc3c(cc1c2-c1ccc(C(F)(F)F)cc1)OCO3`?
Answer: K app [1]: 0.007 min⁻¹; pIC50 (HeLa; Homo sapiens, HeLa): 8.16; pIC50 (PC-3; Homo sapiens, PC-3): 7.87; pEC50 (DNA topoisomerase 1): 6.80

Question: With `CC[C@@]1(O)C(=O)OCc2c1cc1n(c2=O)Cc2c-1nc1ccccc1c2Cc1ccccc1` as the compound, how does the K app [1] read?
Answer: 0.24 min⁻¹

Question: What about the pIC50 (HeLa; Homo sapiens, HeLa) of the same compound?
Answer: 7.09

Question: What about the pIC50 (PC-3; Homo sapiens, PC-3) of the same compound?
Answer: 7.29

Question: What about the pEC50 (DNA topoisomerase 1) of the same compound?
Answer: 5.34

Question: With `CCc1c2c(nc3ccc(O)cc13)-c1cc3c(c(=O)n1C2)COC(=O)[C@]3(O)CC` (stereo in doubt; form 1) [7-ETHYL-10-HYDROXYCAMPTOTHECIN] as the compound, how does the pIC50 (HeLa; Homo sapiens, HeLa) read?
Answer: 7.59

Question: And the pIC50 (PC-3; Homo sapiens, PC-3)?
Answer: 7.45

Question: What about the pEC50 (DNA topoisomerase 1) of the same compound?
Answer: 6.49

Question: What does the source list for `CC[C@@]1(O)C(=O)OCc2c1cc1n(c2=O)Cc2c-1nc1cc3c(cc1c2-c1ccccc1)OCO3`?
Answer: K app [1]: 0.005 min⁻¹; pIC50 (HeLa; Homo sapiens, HeLa): 8.09; pIC50 (PC-3; Homo sapiens, PC-3): 8.09; pEC50 (DNA topoisomerase 1): 6.82

Question: `CC[C@@]1(O)C(=O)OCc2c1cc1n(c2=O)Cc2c-1nc1ccccc1c2CC(C)C` was tested. Which K app [1] did it give?
Answer: 0.11 min⁻¹

Question: And the pIC50 (HeLa; Homo sapiens, HeLa)?
Answer: 5.88

Question: What about the pIC50 (PC-3; Homo sapiens, PC-3) of the same compound?
Answer: 6.77

Question: And the pEC50 (DNA topoisomerase 1)?
Answer: 6.35

Question: For `CCc1c2c(nc3ccc(O)cc13)-c1cc3c(c(=O)n1C2)COC(=O)[C@]3(O)CC` (stereo in doubt; form 2), which K app [1] is on record?
Answer: 0.12 min⁻¹

Question: Which results are given for `CC[C@@]1(O)C(=O)OCc2c1cc1n(c2=O)Cc2cc3ccccc3nc2-1` [CAMPTOTHECIN]?
Answer: K app [1]: 0.14 min⁻¹; pIC50 (HeLa; Homo sapiens, HeLa): 6.93; pIC50 (PC-3; Homo sapiens, PC-3): 5.85

Question: Which K app [1] does the source give for `CCc1c2c(nc3ccc(O)cc13)-c1cc3c(c(=O)n1C2)COC(=O)[C@]3(O)CC` (stereo in doubt; form 1) here?
Answer: 0.06 min⁻¹

Question: How did the K app [1] turn out when `CC[C@@]1(O)C(=O)OCc2c1cc1n(c2=O)Cc2c-1nc1cc3c(cc1c2-c1ccc(Cl)cc1)OCO3` was run?
Answer: 0.008 min⁻¹

Question: And the pIC50 (HeLa; Homo sapiens, HeLa)?
Answer: 7.59

Question: What about the pIC50 (PC-3; Homo sapiens, PC-3) of the same compound?
Answer: 8.09

Question: What about the pEC50 (DNA topoisomerase 1) of the same compound?
Answer: 5.94

Question: How did the K app [1] turn out when `CC[C@@]1(O)C(=O)OCc2c1cc1n(c2=O)Cc2c-1nc1cc3c(cc1c2-c1ccc(C)cc1)OCO3` was run?
Answer: 0.005 min⁻¹

Question: What about the pIC50 (HeLa; Homo sapiens, HeLa) of the same compound?
Answer: 8.70

Question: What about the pIC50 (PC-3; Homo sapiens, PC-3) of the same compound?
Answer: 8.08

Question: What about the pEC50 (DNA topoisomerase 1) of the same compound?
Answer: 5.98

Source: ChEMBL document CHEMBL1137998 (Bioorg Med Chem Lett, 2004)
